Measured values taken from ChEMBL document CHEMBL6078616, “Seven-membered N-heterocycles as approved drugs and promising leads in medicinal chemistry as well as the metal-free domino access to their scaffolds” (Eur J Med Chem, 2024).

Legend:
[1] = system: HeLa; experiment: cells; details: Homo sapiens
Description: Antiproliferative activity against human HeLa cells assessed as reduction in cell viability

[2] = biological target: T1, Histone deacetylase 11 (Homo sapiens, UniProt Q96DB2); experiment: Inhibition of HDAC11 (unknown origin)
T1 sequence (Q96DB2 whole entry): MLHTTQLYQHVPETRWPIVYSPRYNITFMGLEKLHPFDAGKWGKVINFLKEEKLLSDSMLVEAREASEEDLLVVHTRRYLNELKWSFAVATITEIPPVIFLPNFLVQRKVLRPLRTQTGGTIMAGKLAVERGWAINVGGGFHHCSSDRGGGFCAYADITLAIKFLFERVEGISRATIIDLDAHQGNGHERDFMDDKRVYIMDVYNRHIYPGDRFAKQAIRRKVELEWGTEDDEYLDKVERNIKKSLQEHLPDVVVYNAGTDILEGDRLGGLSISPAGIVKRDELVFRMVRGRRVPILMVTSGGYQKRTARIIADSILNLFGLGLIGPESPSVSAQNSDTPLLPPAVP

[3] = biological target: T2, Polyamine deacetylase HDAC10 (Homo sapiens, UniProt Q969S8); experiment: Inhibition of HDAC10 (unknown origin)
T2 sequence (Q969S8 whole entry): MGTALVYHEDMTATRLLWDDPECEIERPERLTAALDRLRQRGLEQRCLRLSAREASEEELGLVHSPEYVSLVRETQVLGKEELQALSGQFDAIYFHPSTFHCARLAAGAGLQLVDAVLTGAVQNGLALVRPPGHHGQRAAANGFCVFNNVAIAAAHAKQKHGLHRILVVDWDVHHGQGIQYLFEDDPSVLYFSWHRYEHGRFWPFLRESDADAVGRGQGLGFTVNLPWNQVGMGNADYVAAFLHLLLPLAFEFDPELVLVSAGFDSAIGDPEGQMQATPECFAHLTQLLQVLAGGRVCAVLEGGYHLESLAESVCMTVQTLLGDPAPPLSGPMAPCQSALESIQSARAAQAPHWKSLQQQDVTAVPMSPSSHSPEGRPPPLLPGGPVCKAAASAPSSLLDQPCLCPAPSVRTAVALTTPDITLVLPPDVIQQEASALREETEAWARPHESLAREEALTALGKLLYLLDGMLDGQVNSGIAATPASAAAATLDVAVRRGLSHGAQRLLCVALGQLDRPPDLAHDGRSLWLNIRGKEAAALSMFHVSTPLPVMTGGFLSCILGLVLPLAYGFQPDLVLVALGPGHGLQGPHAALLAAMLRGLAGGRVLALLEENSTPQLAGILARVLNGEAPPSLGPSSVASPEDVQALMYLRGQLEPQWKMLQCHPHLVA

[4] = biological target: Histone deacetylase 9 (Homo sapiens, UniProt Q9UKV0); experiment: Inhibition of HDAC9 (unknown origin)
Sequence of Histone deacetylase 9 (Q9UKV0 whole entry): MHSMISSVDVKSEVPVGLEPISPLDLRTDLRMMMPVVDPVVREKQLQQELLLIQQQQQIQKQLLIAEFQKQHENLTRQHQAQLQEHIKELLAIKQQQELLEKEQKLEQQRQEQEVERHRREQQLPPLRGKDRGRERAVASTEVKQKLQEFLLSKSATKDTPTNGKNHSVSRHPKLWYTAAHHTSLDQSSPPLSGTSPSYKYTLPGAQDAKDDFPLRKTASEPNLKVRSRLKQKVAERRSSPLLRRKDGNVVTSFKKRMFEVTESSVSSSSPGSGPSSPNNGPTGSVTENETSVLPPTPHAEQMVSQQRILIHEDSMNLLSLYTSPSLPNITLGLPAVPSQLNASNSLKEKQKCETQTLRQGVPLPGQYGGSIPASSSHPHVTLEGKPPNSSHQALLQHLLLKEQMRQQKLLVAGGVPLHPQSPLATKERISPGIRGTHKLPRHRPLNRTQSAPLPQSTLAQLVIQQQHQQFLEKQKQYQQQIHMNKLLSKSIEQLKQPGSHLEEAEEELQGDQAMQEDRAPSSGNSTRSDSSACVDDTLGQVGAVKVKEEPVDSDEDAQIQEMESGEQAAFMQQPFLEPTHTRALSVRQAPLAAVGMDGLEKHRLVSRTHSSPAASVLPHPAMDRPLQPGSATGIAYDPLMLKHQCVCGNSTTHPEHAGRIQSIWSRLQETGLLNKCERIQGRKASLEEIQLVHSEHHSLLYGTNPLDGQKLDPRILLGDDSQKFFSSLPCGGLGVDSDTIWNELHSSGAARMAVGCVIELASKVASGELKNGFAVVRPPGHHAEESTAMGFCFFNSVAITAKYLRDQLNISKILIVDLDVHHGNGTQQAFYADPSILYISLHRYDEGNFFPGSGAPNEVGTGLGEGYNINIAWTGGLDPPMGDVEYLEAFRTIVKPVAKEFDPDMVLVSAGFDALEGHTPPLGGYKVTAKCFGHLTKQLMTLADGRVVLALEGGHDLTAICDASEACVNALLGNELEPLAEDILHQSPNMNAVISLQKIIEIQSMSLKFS

[5] = biological target: Histone deacetylase 5 (Homo sapiens, UniProt Q9UQL6); experiment: Inhibition of HDAC5 (unknown origin)
Sequence of Histone deacetylase 5 (Q9UQL6 whole entry): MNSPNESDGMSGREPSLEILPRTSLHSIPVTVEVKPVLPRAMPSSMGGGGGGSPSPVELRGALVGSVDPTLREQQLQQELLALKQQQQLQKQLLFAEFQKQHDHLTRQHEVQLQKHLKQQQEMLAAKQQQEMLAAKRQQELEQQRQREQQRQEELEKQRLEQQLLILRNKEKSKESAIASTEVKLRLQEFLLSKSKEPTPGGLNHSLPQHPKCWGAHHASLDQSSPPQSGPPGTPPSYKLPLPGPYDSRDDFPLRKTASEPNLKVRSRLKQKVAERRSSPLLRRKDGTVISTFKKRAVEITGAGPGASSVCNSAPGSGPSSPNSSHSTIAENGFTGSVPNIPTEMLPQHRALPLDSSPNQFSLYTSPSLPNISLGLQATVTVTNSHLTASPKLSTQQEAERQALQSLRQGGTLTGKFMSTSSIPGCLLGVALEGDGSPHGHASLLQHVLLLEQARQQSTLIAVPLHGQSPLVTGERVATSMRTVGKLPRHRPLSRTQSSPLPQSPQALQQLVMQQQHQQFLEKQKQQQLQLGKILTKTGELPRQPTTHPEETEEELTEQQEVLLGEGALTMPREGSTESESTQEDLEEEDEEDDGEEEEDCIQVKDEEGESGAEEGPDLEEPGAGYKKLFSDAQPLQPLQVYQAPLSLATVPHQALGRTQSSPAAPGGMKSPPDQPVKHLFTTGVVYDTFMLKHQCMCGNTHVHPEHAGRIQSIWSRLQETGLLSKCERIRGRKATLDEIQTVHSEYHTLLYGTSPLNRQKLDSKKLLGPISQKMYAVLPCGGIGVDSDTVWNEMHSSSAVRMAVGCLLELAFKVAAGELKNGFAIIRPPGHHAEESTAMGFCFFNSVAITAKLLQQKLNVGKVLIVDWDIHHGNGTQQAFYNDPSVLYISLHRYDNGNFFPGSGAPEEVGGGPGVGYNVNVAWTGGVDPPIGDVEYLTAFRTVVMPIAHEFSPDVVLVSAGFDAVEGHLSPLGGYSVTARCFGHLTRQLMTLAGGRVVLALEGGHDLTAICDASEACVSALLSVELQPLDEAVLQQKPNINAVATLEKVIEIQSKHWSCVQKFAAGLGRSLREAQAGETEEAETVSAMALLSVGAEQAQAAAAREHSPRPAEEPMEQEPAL

[6] = biological target: Histone deacetylase 1 (Homo sapiens, UniProt Q13547); experiment: Inhibition of HDAC1 (unknown origin)
Sequence of Histone deacetylase 1 (Q13547 whole entry): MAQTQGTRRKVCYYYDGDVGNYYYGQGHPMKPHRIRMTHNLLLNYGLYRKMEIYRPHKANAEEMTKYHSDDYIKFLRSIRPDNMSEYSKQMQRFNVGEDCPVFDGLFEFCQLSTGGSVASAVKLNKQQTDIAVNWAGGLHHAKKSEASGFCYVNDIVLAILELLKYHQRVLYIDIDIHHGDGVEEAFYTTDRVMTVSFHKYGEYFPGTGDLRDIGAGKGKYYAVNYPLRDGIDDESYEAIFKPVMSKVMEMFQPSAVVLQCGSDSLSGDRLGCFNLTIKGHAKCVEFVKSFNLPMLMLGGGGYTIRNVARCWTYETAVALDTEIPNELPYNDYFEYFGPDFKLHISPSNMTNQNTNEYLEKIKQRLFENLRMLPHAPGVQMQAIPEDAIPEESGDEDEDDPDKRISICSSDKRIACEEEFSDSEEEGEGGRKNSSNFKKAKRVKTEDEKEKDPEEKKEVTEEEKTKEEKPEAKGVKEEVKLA

[7] = biological target: T3, Protein deacetylase HDAC6 (Homo sapiens, UniProt Q9UBN7); experiment: Inhibition of HDAC6 (unknown origin)
T3 sequence (Q9UBN7 whole entry): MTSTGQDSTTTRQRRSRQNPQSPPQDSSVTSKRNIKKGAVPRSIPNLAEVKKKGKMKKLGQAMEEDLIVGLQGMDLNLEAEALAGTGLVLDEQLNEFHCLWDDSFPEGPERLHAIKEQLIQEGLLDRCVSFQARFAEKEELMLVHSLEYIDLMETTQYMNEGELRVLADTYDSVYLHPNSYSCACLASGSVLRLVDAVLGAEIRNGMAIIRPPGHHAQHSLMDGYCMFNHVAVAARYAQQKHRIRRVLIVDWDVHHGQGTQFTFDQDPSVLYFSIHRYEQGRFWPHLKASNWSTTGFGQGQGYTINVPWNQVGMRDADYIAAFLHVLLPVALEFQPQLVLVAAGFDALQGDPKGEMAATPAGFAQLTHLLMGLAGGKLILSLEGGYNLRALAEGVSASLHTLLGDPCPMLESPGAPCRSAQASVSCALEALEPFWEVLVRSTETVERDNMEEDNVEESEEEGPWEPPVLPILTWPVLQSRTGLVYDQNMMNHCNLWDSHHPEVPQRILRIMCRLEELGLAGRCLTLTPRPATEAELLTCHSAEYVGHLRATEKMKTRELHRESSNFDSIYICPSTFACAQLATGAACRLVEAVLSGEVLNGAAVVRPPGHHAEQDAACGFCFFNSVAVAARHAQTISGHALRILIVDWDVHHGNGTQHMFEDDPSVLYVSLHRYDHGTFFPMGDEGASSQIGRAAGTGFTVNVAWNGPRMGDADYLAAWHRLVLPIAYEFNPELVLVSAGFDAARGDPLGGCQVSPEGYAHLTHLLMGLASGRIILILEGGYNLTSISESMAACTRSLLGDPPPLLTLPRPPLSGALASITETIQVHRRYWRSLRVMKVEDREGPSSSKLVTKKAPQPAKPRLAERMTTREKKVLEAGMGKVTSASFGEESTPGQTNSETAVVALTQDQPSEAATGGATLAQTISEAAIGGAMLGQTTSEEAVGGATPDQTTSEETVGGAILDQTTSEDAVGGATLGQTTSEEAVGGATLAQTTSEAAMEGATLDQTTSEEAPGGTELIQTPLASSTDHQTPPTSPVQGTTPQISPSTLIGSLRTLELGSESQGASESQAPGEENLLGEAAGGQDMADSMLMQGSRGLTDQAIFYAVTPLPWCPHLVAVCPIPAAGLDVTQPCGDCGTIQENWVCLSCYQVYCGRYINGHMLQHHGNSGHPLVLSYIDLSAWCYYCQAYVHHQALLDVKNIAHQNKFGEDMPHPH

[8] = biological target: Histone deacetylase 4 (Homo sapiens, UniProt P56524); experiment: Inhibition of HDAC4 (unknown origin)
Sequence of Histone deacetylase 4 (P56524 whole entry): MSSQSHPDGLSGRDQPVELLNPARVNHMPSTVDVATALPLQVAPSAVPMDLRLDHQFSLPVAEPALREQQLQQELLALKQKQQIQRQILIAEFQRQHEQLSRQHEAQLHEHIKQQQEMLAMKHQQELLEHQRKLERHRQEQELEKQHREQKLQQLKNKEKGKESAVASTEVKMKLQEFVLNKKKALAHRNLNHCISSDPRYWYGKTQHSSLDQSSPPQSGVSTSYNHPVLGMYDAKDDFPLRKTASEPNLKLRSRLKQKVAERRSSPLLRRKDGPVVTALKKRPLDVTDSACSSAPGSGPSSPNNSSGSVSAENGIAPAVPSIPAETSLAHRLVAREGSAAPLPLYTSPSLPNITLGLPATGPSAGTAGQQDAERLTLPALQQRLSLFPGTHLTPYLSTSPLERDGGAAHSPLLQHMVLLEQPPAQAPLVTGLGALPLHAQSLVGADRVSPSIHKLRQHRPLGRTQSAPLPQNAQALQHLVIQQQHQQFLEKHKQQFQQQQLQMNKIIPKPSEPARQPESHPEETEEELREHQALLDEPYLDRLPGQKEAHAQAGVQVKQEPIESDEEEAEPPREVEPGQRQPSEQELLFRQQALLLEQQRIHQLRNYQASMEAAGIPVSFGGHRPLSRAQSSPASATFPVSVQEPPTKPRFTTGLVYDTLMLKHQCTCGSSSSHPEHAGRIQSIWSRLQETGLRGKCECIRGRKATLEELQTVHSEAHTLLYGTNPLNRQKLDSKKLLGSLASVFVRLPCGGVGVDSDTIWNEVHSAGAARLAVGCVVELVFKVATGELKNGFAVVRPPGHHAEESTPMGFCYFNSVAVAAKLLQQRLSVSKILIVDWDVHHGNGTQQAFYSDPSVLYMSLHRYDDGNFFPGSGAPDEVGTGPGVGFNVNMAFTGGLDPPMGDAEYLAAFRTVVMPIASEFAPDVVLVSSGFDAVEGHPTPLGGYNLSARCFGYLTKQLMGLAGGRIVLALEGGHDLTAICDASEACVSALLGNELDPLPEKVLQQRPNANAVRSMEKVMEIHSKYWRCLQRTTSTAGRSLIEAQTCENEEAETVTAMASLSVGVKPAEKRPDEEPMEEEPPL

[9] = biological target: T4, Histone deacetylase 8 (Homo sapiens, UniProt Q9BY41); experiment: Inhibition of HDAC8 (unknown origin)
T4 sequence (Q9BY41 whole entry): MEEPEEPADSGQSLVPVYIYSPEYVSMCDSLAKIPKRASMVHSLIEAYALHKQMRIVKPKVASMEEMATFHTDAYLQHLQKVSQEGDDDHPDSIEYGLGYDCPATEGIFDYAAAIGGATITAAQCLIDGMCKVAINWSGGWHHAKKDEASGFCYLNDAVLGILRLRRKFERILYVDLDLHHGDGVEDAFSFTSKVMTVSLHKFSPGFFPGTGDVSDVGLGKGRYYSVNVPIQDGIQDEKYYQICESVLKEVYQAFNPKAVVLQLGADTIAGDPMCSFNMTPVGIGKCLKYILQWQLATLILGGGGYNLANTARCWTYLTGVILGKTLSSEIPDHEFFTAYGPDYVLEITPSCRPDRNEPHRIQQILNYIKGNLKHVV

[10] = biological target: Histone deacetylase 3 (Homo sapiens, UniProt O15379); experiment: Inhibition of HDAC3 (unknown origin)
Sequence of Histone deacetylase 3 (O15379 whole entry): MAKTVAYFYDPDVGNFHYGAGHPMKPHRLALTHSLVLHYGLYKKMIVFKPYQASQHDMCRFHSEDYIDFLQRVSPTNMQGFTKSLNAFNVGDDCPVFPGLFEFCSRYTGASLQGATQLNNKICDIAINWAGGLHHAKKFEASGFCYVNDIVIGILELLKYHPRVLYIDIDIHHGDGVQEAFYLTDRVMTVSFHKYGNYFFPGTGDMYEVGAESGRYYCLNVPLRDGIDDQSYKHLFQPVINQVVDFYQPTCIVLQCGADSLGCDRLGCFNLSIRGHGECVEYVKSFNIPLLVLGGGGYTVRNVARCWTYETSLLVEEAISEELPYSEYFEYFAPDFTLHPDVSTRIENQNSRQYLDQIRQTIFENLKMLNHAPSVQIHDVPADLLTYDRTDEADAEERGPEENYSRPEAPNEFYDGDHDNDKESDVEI

[11] = system: Trypanosoma cruzi; experiment: Antitrypanosomal activity against Trypanosoma cruzi Y strain trypomastigotes […] in African green monkey Vero cells assessed as inhibition of parasite growth incubated for 24 hrs by Neubauer chamber based analysis; type: functional, organism-based
[12] = system: Leishmania infantum; experiment: Antileishmanial activity against Leishmania infantum promastigote assessed as reduction in parasite growth after 72 hrs by MTT assay; type: functional, organism-based
[13] = Cytotoxicity against African green monkey Vero cells assessed as reduction in cell viability incubated for 72 hrs by MTT assay; type: toxicity, cell-based; details: chlorocebus sabaeus
[14] = Cytotoxicity against human THP-1 cells assessed as reduction in cell viability; type: toxicity, cell-based
[15] = biological target: Sigma intracellular receptor 2 (Homo sapiens, UniProt Q5BJF2); experiment: Binding affinity to TMEM97 (unknown origin) assessed as inhibition constant
Sequence of Sigma intracellular receptor 2 (Q5BJF2 whole entry): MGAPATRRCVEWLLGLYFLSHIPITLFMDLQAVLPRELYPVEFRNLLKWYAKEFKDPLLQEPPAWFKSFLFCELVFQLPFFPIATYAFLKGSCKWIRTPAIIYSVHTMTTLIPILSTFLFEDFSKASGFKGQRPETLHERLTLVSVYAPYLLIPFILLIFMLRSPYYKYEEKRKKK

Row | Compound | IC50 [11] [µM] | IC50 [12] [µM] | CC50 at 72 h [13] [µM] | CC50 [14] [µM] | other results
1 | COC(=O)Nc1nc2cc(C(=O)c3cccs3)ccc2[nH]1 [NOCODAZOLE] | – | – | – | – | IC50 [1]: > 2 µM
2 | O=C(NO)c1ccc(CN2c3ccccc3SC[C@H]3CCCCC[C@H]32)cc1 | – | – | – | – | IC50 [2]: 1.2 µM; IC50 [3]: > 30 µM; IC50 [4]: > 30 µM; IC50 [5]: > 30 µM; IC50 [6]: > 30 µM; IC50 [7]: 0.03 µM; IC50 [8]: > 30 µM; IC50 [9]: 6.7 µM; IC50 [10]: > 30 µM
3 | Brc1ccc([C@@H]2C[C@H]3Cc4ccc5ccccc5c4N2O3)s1 | 8.3 | 21.6 | > 809 | > 809 | –
4 | CC1CS(=O)(=O)CCN1/N=C/c1ccc([N+](=O)[O-])o1 (centres undefined) [NIFURTIMOX] | – | – | 67.5 | – | –
5 | Cc1ccc([C@@H]2C[C@H]3Cc4ccc5ccccc5c4N2O3)o1 | 9.6 | 15.4 | 94.5 | 22.5 | –
6 | CN1CCN(c2ccc3c(c2)C2CC3CCN2C(=O)OCc2ccc(F)cc2)CC1 (centres undefined) | – | – | – | – | Ki [15]: 0.011 µM
7 | O=C1Cc2cnn(-c3cc(Cl)cc(Cl)c3)c2-c2cc(Br)ccc2N1 | – | – | – | – | IC50 [1]: 1.32 µM
8 | O=C(NO)c1ccc(CN2c3ccccc3S(=O)(=O)C[C@H]3CCCC[C@H]32)cc1 | – | – | – | – | IC50 [7]: 0.1 µM
9 | FC(F)(F)c1ccc(-c2ccc3c(c2)C2CC3CCN2C2CCCC2)cc1 (centres undefined) | – | – | – | – | Ki [15]: 0.061 µM
10 | O=[N+]([O-])c1ccc([C@@H]2C[C@H]3Cc4ccc5ccccc5c4N2O3)o1 | 8.6 | 13.9 | 85.4 | 931 | –
11 | O=C1Cc2cnn(-c3cc(Cl)cc(Cl)c3)c2-c2ccccc2N1 | – | – | – | – | IC50 [1]: 1.32 µM
12 | O=C1Cc2c([nH]c3ccc(Br)cc23)-c2ccccc2N1 [KENPAULLONE] | – | – | – | – | IC50 [1]: > 2 µM
13 | C[C@@H]1[C@H](O)[C@@H](C)/C=C/C=C/C=C/C=C/C=C/C=C/C=C/[C@H](O[C@@H]2O[C@H](C)[C@@H](O)[C@H](N)[C@@H]2O)C[C@@H]2O[C@](O)(C[C@@H](O)C[C@@H](O)[C@H](O)CC[C@@H](O)C[C@@H](O)CC(=O)O[C@H]1C)C[C@H](O)[C@H]2C(=O)O [AMPHOTERICIN B] | – | 0.01 | – | – | –
14 | OCCCN1CCC2CC1c1cc(-c3ccc(C(F)(F)F)cc3)ccc12 (centres undefined) | – | – | – | – | Ki [15]: 0.046 µM
15 | CCN1CCN(c2ccc3c(c2)C2CCN(C(=O)OCc4ccccc4)C3C2)CC1 (centres undefined) | – | – | – | – | Ki [15]: 0.116 µM
16 | O=[N+]([O-])c1ccc([C@@H]2C[C@H]3Cc4ccc5ccccc5c4N2O3)cc1 | 8.6 | 5 | > 903 | > 903 | –
17 | O=C1Cc2cnn(-c3cccc(Br)c3)c2-c2ccccc2N1 | – | – | – | – | IC50 [1]: 1.32 µM

Now from value to molecule, other results behind:

Row | IC50 [11] [µM] | Compound | IC50 [12] [µM] | CC50 at 72 h [13] [µM] | CC50 [14] [µM] | other results
18 | 3.3 | O[C@@H]1Cc2cc(Br)c3ccccc3c2N[C@H](c2cccc(Cl)c2Cl)C1 | 11.8 | 40.1 | 59.8 | –
19 | 11.1 | O[C@@H]1Cc2cc(Br)c3ccccc3c2N[C@H](c2ccccc2Cl)C1 | 8.9 | 16 | 11.1 | –
20 | 7.1 | Cc1ccccc1[C@@H]1C[C@H](O)Cc2cc(Br)c3ccccc3c2N1 | 7.7 | 113 | 7.1 | –
21 | 11.9 | COc1cccc([C@@H]2C[C@H]3Cc4cc(Br)c5ccccc5c4N2O3)c1 | 40.1 | > 1520 | > 1520 | –
22 | 11.3 | Cc1ccc([C@@H]2C[C@H]3Cc4ccc5ccccc5c4N2O3)s1 | 10.9 | 498 | > 977 | –
23 | 2.5 | Cc1ccccc1[C@@H]1C[C@H](O)Cc2ccc3ccccc3c2N1 | 36.2 | 36.1 | 41.6 | –
24 | 12.2 | O[C@@H]1Cc2cc(Br)c3ccccc3c2N[C@H](c2ccccc2)C1 | 617 | 25.3 | 24 | –
25 | 6.3 | O[C@@H]1Cc2cc(Br)c3ccccc3c2N[C@H](c2cccc(Cl)c2)C1 | 48.2 | 10 | 45.1 | –
